Test results from patent publication US8063221B2, “Aminoquinolones as GSK-3 inhibitors” (Kyorin Pharmaceutical Co., Ltd., priority 2006, dated 2011).
Converted amounts (≈) assume the structure as drawn. Where two headings read alike, the source gives them in different places.

Tests used:
[1] = molecular target: T1, recombinant full-length human GSK3β (Homo sapiens, UniProt P49841); experiment: Luciferase-coupled cell-free GSK3β kinase assay; format: biochemical
T1 construct: recombinant full-length human GSK3β (Upstate); purchased Upstate
Protocol: For compounds in Tables 1 and 2, IC50 (μM) for GSK3β enzyme in cell free assay is provided as follows:
Luciferase-Coupled Protein Kinase Assays
All coupled-luciferase assays are performed by using a brief incubation with firefly luciferase (Promega) after completion of the kinase assay. KinaseGlo Plus is used for reading kinase reactions with ATP>10 μM, KinaseGlo for ATP <10 μM. The assay volume in a 384-well plate for the kinase reaction is 30 microliters.
10-25 ng of recombinant full-length human GSK3β (Upstate) is incubated in the presence or absence of compound at varying concentrations for 1 hour at 30 degrees Celsius in 20 mM MOPS, pH 7.0, 10 mM magnesium acetate, 0.2 mM EDTA, 2 mM EGTA, 30 mM magnesium chloride, 62.5 μM phospho-glycogen synthase peptide-2, 5 μM ATP, 10 mM β-glycerol phosphate, 1 mM sodium orthovanadate and 1 mM dithiothreitol. Proceed to KinaseGlo luciferase reaction (see below).
Following the completion of the kinase reaction an equal volume of KinaseGlo or KinaseGlo Plus luciferase reagent (Promega) is added and the luminescence read using a luminescence plate reader within 5-10 minutes. Compound activity is expressed as % inhibition relative to maximal inhibition observed at the maximal dose and IC50 values then calculated using curve fitting software (GraphPad Prizm).

E. coli, ATCC8739 = experiment: Antibacterial activity (MIC), E. coli; format: cell-based; conditions: Escherichia coli
Text: (§1) As used herein, a minimum inhibitory concentration (MIC) for bacterial growth assay is the lowest level of a compound needed to cause an inhibition to bacterial growth in culture medium. In certain embodiments, the antibacterial activity of compounds herein, measured as MIC.
(§2) In certain embodiments, GSK3 inhibitors provided herein are substantially free of antibacterial activity or having very low antibacterial activity. The antibacterial activity can be measured by methods known in the art by estimating a minimum inhibitory concentration (MIC) for test compounds. A MIC is the lowest level of a compound needed to cause an inhibition to bacterial growth in a culture medium. […] (Clinical and Laboratory Standards Institute. Methods for Dilution Antimicrobial Susceptibility Tests for Bacteria That Grow Aerobically; Approved Standard-Sixth Edition: CLSI document […]. CLSI, Wayne, Pa. (2003))
(§3) Antibacterial activity for E. coli, ATCC8739 andS. aureus Smith expressed as MIC (μM) is provided as follows: […]

S. aureus Smith = experiment: Antibacterial activity (MIC), S. aureus; format: cell-based; conditions: Staphylococcus aureus
Text: as §1, §2, §3

[2] = ATCC8739, Table 2, E. coli ATCC8739, read-out: Antimicrobial MIC [μM] E. Coli
[3] = Table 2, S. aureus Smith, read-out: Antimicrobial MIC [μM] S. aureus
[4] = ATCC8739, Table 1, E. coli ATCC8739, read-out: Antibacterial MIC (μM) E.Coli
[5] = Table 1, read-out: Antibacterial MIC (μM) S. aureus Smith
[6] = ATCC8739, read-out: Antibacterial MIC (μM) E.Coli
[7] = read-out: Antibacterial MIC (μM) S. aureus Smith

T1 sequence (P49841 whole entry): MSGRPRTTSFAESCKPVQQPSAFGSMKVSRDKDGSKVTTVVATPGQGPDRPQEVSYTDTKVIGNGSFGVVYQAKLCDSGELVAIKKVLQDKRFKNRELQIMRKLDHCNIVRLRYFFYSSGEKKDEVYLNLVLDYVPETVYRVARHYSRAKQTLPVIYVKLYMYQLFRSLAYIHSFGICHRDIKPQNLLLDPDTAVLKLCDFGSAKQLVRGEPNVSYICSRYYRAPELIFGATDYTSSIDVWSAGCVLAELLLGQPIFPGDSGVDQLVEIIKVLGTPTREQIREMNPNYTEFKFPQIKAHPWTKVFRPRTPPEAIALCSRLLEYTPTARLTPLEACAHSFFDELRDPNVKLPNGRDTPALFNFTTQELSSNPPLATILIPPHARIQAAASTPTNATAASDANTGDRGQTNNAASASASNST

Row | SMILES | IC50 ([1]; Table 2) [nM] | MIC (E. coli, ATCC8739; [2]) [µM] | MIC (S. aureus Smith; [3]) [µM] | IC50 ([1]; Table 1) [nM] | MIC (E. coli, ATCC8739; [4]) [µM] | MIC (S. aureus Smith; [5]) [µM] | MIC (E. coli, ATCC8739; [6]) [µM] | MIC (S. aureus Smith; [7]) [µM]
1 | COc1c(NCCCc2ccccc2)c(F)c(N)c2c(=O)ccn(C3CC3)c12 [compound 1] | 100 to 500 | 10 to 50 (≈ 3.81 to 19.1 µg/mL) | 10 to 50 (≈ 3.81 to 19.1 µg/mL) |  |  |  |  | 
2 | CC1COc2c(NCCNc3ccccn3)c(F)c(N)c3c(=O)c(C(=O)O)cn1c23 (stereo not drawn) [compound 90] |  |  |  | < 100 | 0.5 to 10 (≈ 0.207 to 4.13 µg/mL) | 0.5 to 10 (≈ 0.207 to 4.13 µg/mL) |  | 
3 | Nc1c(F)c(NCCNc2ccccn2)c2c3c1c(=O)c(C(=O)O)cn3[C@@H](CF)CO2 [Example 134] | < 100 | < 0.5 | < 0.5 |  |  |  |  | 
4 | Nc1c(F)c(NCCCc2ccccc2)c(F)c2c1c(=O)c(C(=O)O)cn2CCc1ccccc1 [compound 46] |  |  |  | < 100 | 10 to 50 (≈ 4.78 to 23.9 µg/mL) | 10 to 50 (≈ 4.78 to 23.9 µg/mL) |  | 
5 | CC(C)OCCCNc1c(F)c(N)c2c(=O)c(C(=O)O)cn3c2c1OC[C@@H]3C [compound 21] | 100 to 500 | > 50 | 0.5 to 10 (≈ 0.197 to 3.93 µg/mL) |  |  |  |  | 
6 | Nc1c(F)c(NCCCn2ccnc2)c(F)c2c1c(=O)c(C(=O)O)cn2CCCn1ccnc1 [compound 61] |  |  |  | 100 to 500 |  |  | > 50 | > 50
7 | Nc1c(F)c(NCCNc2ccccn2)cc2c1c(=O)c(C(=O)O)cn2C1CC1 [Example 133] | < 100 | 0.5 to 10 (≈ 0.199 to 3.97 µg/mL) | < 0.5 |  |  |  |  | 
8 | CC1(C)COc2c(NCCCn3ccnc3)c(F)c(N)c3c(=O)c(C(=O)O)cn(c23)C1 [compound 26] | < 100 | 10 to 50 (≈ 4.29 to 21.5 µg/mL) | 10 to 50 (≈ 4.29 to 21.5 µg/mL) |  |  |  |  | 
9 | Nc1c(F)c(NCCc2ccncc2)c(F)c2c1c(=O)ccn2CCc1ccccc1 [compound 59] |  |  |  | 100 to 500 | > 50 | > 50 |  | 
10 | COc1c(NCCc2cccnc2)c(F)c(N)c2c(=O)c(C(=O)O)cn(C3CC3)c12 [compound 85] |  |  |  | > 1000 |  |  | 0.5 to 10 (≈ 0.206 to 4.12 µg/mL) | < 0.5
11 | CC(C)C[C@H]1COc2c(NCCCc3ccccc3)c(F)c(N)c3c(=O)c(C(=O)O)cn1c23 [compound 50] | < 100 | 10 to 50 (≈ 4.54 to 22.7 µg/mL) | 10 to 50 (≈ 4.54 to 22.7 µg/mL) |  |  |  |  | 
12 | CC(C)OCCCNc1c(F)c(N)c2c(=O)c(C(=O)O)cn3c2c1OCC3(C)C [compound 40] | 100 to 500 | > 50 | > 50 |  |  |  |  | 
13 | CC(C)C[C@H]1COc2c(NCCCn3cnc4ccccc43)c(F)c(N)c3c(=O)c(C(=O)O)cn1c23 [compound 48] | < 100 | 10 to 50 (≈ 4.94 to 24.7 µg/mL) | 10 to 50 (≈ 4.94 to 24.7 µg/mL) |  |  |  |  | 
14 | CC(C)[C@H]1COc2c(NCCCn3ccnc3)c(F)c(N)c3c(=O)c(C(=O)O)cn1c23 [compound 54] | < 100 | > 50 | 10 to 50 (≈ 4.29 to 21.5 µg/mL) |  |  |  |  | 
15 | C[C@H]1COc2c(NCCCC3CCCCC3)c(F)c(N)c3c(=O)c(C(=O)O)cn1c23 [Example 103] | < 100 | 10 to 50 (≈ 4.17 to 20.9 µg/mL) | 10 to 50 (≈ 4.17 to 20.9 µg/mL) |  |  |  |  | 
16 | CC(C)OCCCNc1c(F)c(N)c2c(=O)c(C(=O)O)cn3c2c1OCC3C (stereo not drawn) [compound 4] | 100 to 500 | > 50 | 0.5 to 10 (≈ 0.197 to 3.93 µg/mL) |  |  |  |  | 
17 | Nc1c(F)c(NCCNc2ccccn2)c(F)c2c1c(=O)c(C(=O)O)cn2C1CC1 [compound 7] |  |  |  | 100 to 500 | 0.5 to 10 (≈ 0.208 to 4.15 µg/mL) | 0.5 to 10 (≈ 0.208 to 4.15 µg/mL) |  | 
18 | Nc1c(F)c(NCCc2ccc(F)cc2)c(F)c2c1c(=O)c(C(=O)O)cn2C1CC1 [compound 5] |  |  |  | 100 to 500 | 0.5 to 10 (≈ 0.209 to 4.17 µg/mL) | < 0.5 |  | 
19 | CC1COc2c(NCCNc3cccc(F)n3)c(F)c(N)c3c(=O)c(C(=O)O)cn1c23 (stereo not drawn) [compound 14] | < 100 | 10 to 50 (≈ 4.31 to 21.6 µg/mL) | 0.5 to 10 (≈ 0.216 to 4.31 µg/mL) |  |  |  |  | 
20 | Nc1c(F)c(NCCCc2ccccc2)c(F)c2c1c(=O)ccn2CCc1ccccc1 [compound 58] |  |  |  | 100 to 500 | 10 to 50 (≈ 4.34 to 21.7 µg/mL) | 10 to 50 (≈ 4.34 to 21.7 µg/mL) |  | 
21 | CC1(C)COc2c(NCCCn3cnc4ccccc43)c(F)c(N)c3c(=O)c(C(=O)O)cn(c23)C1 [compound 52] | 100 to 500 | 0.5 to 10 (≈ 0.24 to 4.8 µg/mL) | 0.5 to 10 (≈ 0.24 to 4.8 µg/mL) |  |  |  |  | 
22 | Nc1c(F)c(NCCc2ccc(F)cc2F)c(F)c2c1c(=O)c(C(=O)O)cn2C1CC1 [compound 19] |  |  |  | 100 to 500 | 0.5 to 10 (≈ 0.218 to 4.35 µg/mL) | 0.5 to 10 (≈ 0.218 to 4.35 µg/mL) |  | 
23 | COc1c(NCCNc2ccccn2)c(F)c(N)c2c(=O)c(C(=O)O)cn(Cc3ccccc3)c12 [Example 130] | > 1000 | 0.5 to 10 (≈ 0.239 to 4.77 µg/mL) | 0.5 to 10 (≈ 0.239 to 4.77 µg/mL) |  |  |  |  | 
